# Reference: patent US20100298141A1, “SUBSTITUTED PYRIDINE N-OXIDE HERBICIDES” (E. I. DU PONT DE NEMOURS AND COMPANY, priority 2007, published 2010)
# How the values were obtained:
# sugarcane = test: Test F pre-/postemergence test; assay type: in vivo, Saccharum officinarum; conditions: for Sugarcane plant response rating: postemergence
# Excerpt: Seeds of plant species selected from bermudagrass (Cynodon dactylon), Surinam grass (Brachiaria decumbens), large crabgrass (Digitaria sanguinalis), green foxtail (Setaria viridis), goosegrass (Eleusine indica), johnsongrass (Sorghum halepense), kochia (Kochia scoparia), pitted morningglory (Ipomoea lacunosa), purple nutsedge (Cyperus rotundus), common ragweed (Ambrosia elation), mustard (Brassica nigra), guineagrass (Panicum maximum), […] (Paspalum dilatatum), barnyardgrass (Echinochloa crus-galli), southern sandbur (Cenchrus echinatus), common sowthistle (Sonchus oleraceous), prickly […] spinosa), Italian ryegrass (Lolium multiflorum), common purslane (Portulaca oleracea), broadleaf signalgrass (Brachiaria platyphylla), common groundsel (Senecio vulgaris), common chickweed (Stellaria media), Virginia dayflower (Commelina virginica), annual bluegrass (Poa annua), naked crabgrass (Digitaria nuda), […] cochinchinensis), quackgrass (Elytrigia repens), Canada horseweed (Conyza canadensis), field bindweed (Convolvulus arvensis), […] (Bidens bipinnata), common mallow (Malva sylvestris), Russian thistle (Salsola kali), and sugarcane (Saccharum officinarum) were planted and treated preemergence with test chemicals formulated in a non-phytotoxic solvent mixture which included a surfactant. At a different time, sugarcane was treated with postemergence applications of some of the test chemicals formulated in the same manner. Plants were approximately 3- to 4-leaf stage for the postemergence treatments. Treated plants and controls were maintained in a greenhouse for 14 to 21 days, after which time all species were compared to controls and visually evaluated. […] A dash (-) response means no test result.
# Redstem = test: Test C flooded paddy test; assay type: in vivo; conditions: Flood
# Excerpt: (§1) At time of treatment, test pots were flooded to 3 cm above the soil surface, treated by application of test compounds directly to the paddy water, and then maintained at that water depth for the duration of the test. Treated plants and controls were maintained in a greenhouse for 13 to 15 days, after which time all species were compared to controls and visually evaluated. […] A dash (-) response means no test result.
# Ricefield Bulrush = test: Test C flooded paddy test; assay type: in vivo; conditions: Flood
# Excerpt: as §1
# rice = test: Test B flooded paddy test; assay type: in vivo, Oryza sativa; conditions: Flood, 250 g ai/ha, 13 to 15 days; scale 0 to 100, 0 no effect, 100 complete control
# Excerpt: as §1
# umbrella sedge = test: Test B flooded paddy test; assay type: in vivo, Cyperus difformis; conditions: Flood, 250 g ai/ha, 13 to 15 days; scale 0 to 100, 0 no effect, 100 complete control
# Excerpt: as §1
# field violet = test: Test D preemergence test; assay type: in vivo, Viola arvensis; conditions: scale 0 to 100
# Excerpt: Seeds of plant species selected from annual bluegrass (Poa annua), blackgrass (Alopecurus myosuroides), downy bromegrass (Bromus tectorum), field violet (Viola arvensis), green foxtail (Setaria viridis), Italian ryegrass (Lolium multiflorum), littleseed canarygrass (Phalaris minor), spring wheat (Triticum aestivum), wild oat (Avena fatua), […]), winter barley (Hordeum vulgare), and winter wheat (Triticum aestivum) were planted and treated preemergence with test chemicals formulated in a non-phytotoxic solvent mixture which included a surfactant. […] A dash (-) response means no test result.
# millet foxtail = test: Test G preemergence test; assay type: in vivo, Setaria italica; conditions: scale 0 to 100
# large crabgrass = test: Test G preemergence test; assay type: in vivo, Digitaria sanguinalis; conditions: scale 0 to 100
# yellow foxtail = test: Test G preemergence test; assay type: in vivo, Pennisetum glaucum; conditions: scale 0 to 100
# fall panicum = test: Test G preemergence test; assay type: in vivo, Panicum dichotomiflorum; conditions: scale 0 to 100
# broadleaf signalgrass = test: Test G preemergence test; assay type: in vivo, Brachiaria platyphylla; conditions: scale 0 to 100
# woolly cupgrass = test: Test G preemergence test; assay type: in vivo, Eriochloa villosa; conditions: scale 0 to 100
# [1] = 250 g ai/ha, scale 0 to 100 (0 no effect, 100 complete control)
# [2] = 31 g ai/ha, scale 0 to 100 (0 no effect, 100 complete control)
# [3] = 62 g ai/ha, scale 0 to 100, 0 no effect, 100 complete control, 13 to 15 days
# [4] = 125 g ai/ha, scale 0 to 100, 0 no effect, 100 complete control, 13 to 15 days
SMILES,"Plant response rating, Redstem (Redstem; [2])","Plant response rating, Redstem (Redstem; [3])","Plant response rating, Redstem (Redstem; [4])","Plant response rating, Redstem (Redstem; [1])","Plant response rating, Ricefield Bulrush (Ricefield Bulrush; [2])","Plant response rating, Ricefield Bulrush (Ricefield Bulrush; [3])","Plant response rating, Ricefield Bulrush (Ricefield Bulrush; [4])","Plant response rating, Ricefield Bulrush (Ricefield Bulrush; [1])","Plant response rating, Rice, Transplanted (rice)","Plant response rating, Umbrella Sedge (umbrella sedge)","Plant response rating, Field Violet (field violet; 31 g ai/ha)","Plant response rating, Field Violet (field violet; 62 g ai/ha)","Plant response rating, Field Violet (field violet; 125 g ai/ha)","Plant response rating, Field Violet (field violet; 250 g ai/ha)","Plant response rating, Foxtail, Millet (millet foxtail; 31 g ai/ha)","Plant response rating, Foxtail, Millet (millet foxtail; 62 g ai/ha)","Plant response rating, Foxtail, Millet (millet foxtail; 125 g ai/ha)","Plant response rating, Foxtail, Millet (millet foxtail; 250 g ai/ha)","Plant response rating, Crabgrass, Large (large crabgrass; 31 g ai/ha)","Plant response rating, Crabgrass, Large (large crabgrass; 62 g ai/ha)",other results
CC(c1c(C(F)(F)F)nn(C)c1OC(F)F)S(=O)(=O)c1cccc[n+]1[O-] (stereo not drawn) [Compound 5],40,80,80,80,0,45,80,85,70,100,–,–,–,–,–,–,–,–,–,–,"Sugarcane plant response rating (sugarcane; 62 g ai/ha, scale 0 to 100): 0; Sugarcane plant response rating (sugarcane; [1]): 7; Plant response rating, Sugarcane (sugarcane; 250 g ai/ha, preemergence, scale 0 to 100): 7"
Cn1nc(C(F)(F)F)c(CS(=O)(=O)c2cccc[n+]2[O-])c1OC(F)F [Compound 4],40,55,85,80,0,0,60,80,90,100,0,0,0,10,30,40,70,100,85,80,"Plant response rating, Crabgrass, Large (large crabgrass; 125 g ai/ha): 95; Plant response rating, Crabgrass, Large (large crabgrass; 250 g ai/ha): 100; Plant response rating, Foxtail, Yellow (yellow foxtail; 31 g ai/ha): 100; Plant response rating, Foxtail, Yellow (yellow foxtail; 62 g ai/ha): 100; Plant response rating, Foxtail, Yellow (yellow foxtail; 125 g ai/ha): 100; Plant response rating, Foxtail, Yellow (yellow foxtail; 250 g ai/ha): 100; Plant response rating, Fall Panicum (fall panicum; 31 g ai/ha): 20; Plant response rating, Fall Panicum (fall panicum; 62 g ai/ha): 20; Plant response rating, Fall Panicum (fall panicum; 125 g ai/ha): 60; Plant response rating, Fall Panicum (fall panicum; 250 g ai/ha): 100; Plant response rating, Signalgrass (broadleaf signalgrass; 31 g ai/ha): 0; Plant response rating, Signalgrass (broadleaf signalgrass; 62 g ai/ha): 20; Plant response rating, Signalgrass (broadleaf signalgrass; 125 g ai/ha): 80; Plant response rating, Signalgrass (broadleaf signalgrass; 250 g ai/ha): 90; Plant response rating, Cupgrass, Woolly (woolly cupgrass; 31 g ai/ha): 0; Plant response rating, Cupgrass, Woolly (woolly cupgrass; 62 g ai/ha): 75; Plant response rating, Cupgrass, Woolly (woolly cupgrass; 125 g ai/ha): 75; Plant response rating, Cupgrass, Woolly (woolly cupgrass; 250 g ai/ha): 100"
Cn1nc(C(F)(F)F)c(CS(=O)(=O)c2ccc(Cl)c[n+]2[O-])c1OC(F)F [Compound 7],–,–,–,–,–,–,–,–,70,90,0,0,0,30,0,0,55,55,0,0,"Plant response rating, Crabgrass, Large (large crabgrass; 125 g ai/ha): 20; Plant response rating, Crabgrass, Large (large crabgrass; 250 g ai/ha): 90; Plant response rating, Foxtail, Yellow (yellow foxtail; 31 g ai/ha): 0; Plant response rating, Foxtail, Yellow (yellow foxtail; 62 g ai/ha): 50; Plant response rating, Foxtail, Yellow (yellow foxtail; 125 g ai/ha): 95; Plant response rating, Foxtail, Yellow (yellow foxtail; 250 g ai/ha): 100; Plant response rating, Fall Panicum (fall panicum; 31 g ai/ha): 0; Plant response rating, Fall Panicum (fall panicum; 62 g ai/ha): 80; Plant response rating, Fall Panicum (fall panicum; 125 g ai/ha): 90; Plant response rating, Fall Panicum (fall panicum; 250 g ai/ha): 100; Plant response rating, Signalgrass (broadleaf signalgrass; 31 g ai/ha): 15; Plant response rating, Signalgrass (broadleaf signalgrass; 62 g ai/ha): 35; Plant response rating, Signalgrass (broadleaf signalgrass; 125 g ai/ha): 90; Plant response rating, Signalgrass (broadleaf signalgrass; 250 g ai/ha): 100; Plant response rating, Cupgrass, Woolly (woolly cupgrass; 31 g ai/ha): 0; Plant response rating, Cupgrass, Woolly (woolly cupgrass; 62 g ai/ha): 60; Plant response rating, Cupgrass, Woolly (woolly cupgrass; 125 g ai/ha): 75; Plant response rating, Cupgrass, Woolly (woolly cupgrass; 250 g ai/ha): 80"
